From publication PMC7058083, “Structural basis of ligand binding modes at the human formyl peptide receptor 2” (Nature Communications, 2020)
Substitutions are numbered along the chain they refer to. Residues, ends and D or L forms follow the SMILES beside them. *: point of attachment. For = O=C*

Columns and labels:
Experiment in all cases: Competition binding of fMLFK with WK(FITC)YMVm, flow cytometry on HEK293F cells
[1] = molecular target: T1, wild-type (WT) and mutant FPR2 (Homo sapiens, UniProt P25090, D281G); details: FPR2 D281G; mean ± s.e.m., n=3; SEM
T1 construct: expressed in transfected cells; host or cells: HEK293F
T1 sequence (P25090 1-351 D281G): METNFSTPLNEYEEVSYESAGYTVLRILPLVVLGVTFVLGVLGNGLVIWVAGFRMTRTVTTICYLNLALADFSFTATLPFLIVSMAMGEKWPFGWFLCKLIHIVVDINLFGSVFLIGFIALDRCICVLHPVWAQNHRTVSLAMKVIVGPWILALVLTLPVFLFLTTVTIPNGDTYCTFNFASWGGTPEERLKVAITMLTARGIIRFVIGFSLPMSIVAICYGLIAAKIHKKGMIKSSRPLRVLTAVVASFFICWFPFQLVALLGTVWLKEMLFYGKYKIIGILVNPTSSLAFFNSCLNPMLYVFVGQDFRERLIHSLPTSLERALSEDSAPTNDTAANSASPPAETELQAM
Procedure: (§1) Flag-tagged wild-type and mutant FPR2s were cloned into the pTT5 vector and expressed in HEK293F cells. The cells were harvested, and washed with Hanks’ Balanced Salt Solution (HBSS) buffer supplemented with 0.5% bovine serum albumin and 20 mM HEPES, pH 7.4. The cells were then resuspended in the same buffer to the final concentration of 1 × 10^6 cells per ml. The cell-surface expression was measured as mentioned above. […] Mean fluorescent intensity of each well was then read by a FCM (flow cytometry) reader (Millipore). […] For competitive binding of fMLFK, cells were plated in 96-well plates (100,000 cells per well), and incubated with WK(FITC)YMVm at 4 °C for 1 h. The following concentrations of WK(FITC)YMVm were used: 10 nM (wild type, L81^2.60F, E89G, and V105^3.32A), 30 nM (D281^7.32G), 40 nM (H102^3.29F, V160^4.60A, L268^ECL3A, N285^7.36A, and F292^7.43A), and 100 nM (L164^4.64A and T177A). Then increasing concentrations of fMLFK (100 nM–1 mM) were added, and incubated for another 1 h on ice. Mean fluorescent intensity values were measured by flow cytometry. Data were analyzed using Prism 7.0.

[2] = molecular target: T2, wild-type (WT) and mutant FPR2 (Homo sapiens, UniProt P25090, E89G); details: FPR2 E89G; mean ± s.e.m., n=3; SEM
T2 construct: expressed in transfected cells; host or cells: HEK293F
T2 sequence (P25090 1-351 E89G): T1 sequence (P25090 1-351 D281G) with E89G, G281D
Procedure: as §1

[3] = molecular target: T3, wild-type (WT) and mutant FPR2 (Homo sapiens, UniProt P25090, H102F); details: FPR2 H102F; mean ± s.e.m., n=3; SEM
T3 construct: expressed in transfected cells; host or cells: HEK293F
T3 sequence (P25090 1-351 H102F): T1 sequence (P25090 1-351 D281G) with H102F, G281D
Procedure: as §1

[4] = molecular target: T4, wild-type (WT) and mutant FPR2 (Homo sapiens, UniProt P25090, L164A); details: FPR2 L164A; mean ± s.e.m., n=3; SEM
T4 construct: expressed in transfected cells; host or cells: HEK293F
T4 sequence (P25090 1-351 L164A): T1 sequence (P25090 1-351 D281G) with L164A, G281D
Procedure: as §1

[5] = molecular target: T5, wild-type (WT) and mutant FPR2 (Homo sapiens, UniProt P25090, V160A); details: FPR2 V160A; mean ± s.e.m., n=3; SEM
T5 construct: expressed in transfected cells; host or cells: HEK293F
T5 sequence (P25090 1-351 V160A): T1 sequence (P25090 1-351 D281G) with V160A, G281D
Procedure: as §1

- pKi, competition binding [1]: 4.66 ± 0.16
- pKi, competition binding [2]: 3.49 ± 0.31
- pKi, competition binding [3]: 3.85 ± 0.24
- pKi, competition binding [4]: 4.16 ± 0.25
- pKi, competition binding [5]: 4.16 ± 0.14
Compound: CSCC[C@H](NC=O)C(=O)N[C@@H](CC(C)C)C(=O)N[C@@H](Cc1ccccc1)C(=O)N[C@@H](CCCCN)C(=O)O [fMLFK] (For-MLFK-OH)
